# Measurements as given in patent US20260207626A1, “SYNTHETIC TRITERPENOIDS AND COMPOSITIONS THEREOF IN WEIGHT MANAGEMENT, SKELETAL MUSCLE FUNCTION, AND APPETITE SUPPRESSION” (The Board of Regents of the University of Texas System, priority 2022, published 2026).
# Entries after “also recorded” stand apart in the source; their conditions may differ. Marks after values point to notes of the source that are not given here.
# Columns and labels:
# [1] = Chow consumption / energy intake of mice fed LFD or HFD with or without CDDO-EA; assay type: in vivo, C57B16/J mice
# Description: To assess the protective effects of CDDO-EA from obesity and insulin resistance, C57B16/J mice (6-8 weeks old, male, strain #000664, The Jackson Laboratory) were used. The animals were fed a Low Fat diet (LFD) (10% total calories from fat, […]) or a High Fat diet (HFD) (60% of total calories from fat) incorporated with or without CDDO-EA (chow containing 0.04% CDDO-EA) for six weeks.
# Energy intake was also measured. Energy intake is determined as a measure of the amount of food consumed by a subject (such as a subject mouse). […] Thus CDDO-EA protects from development of HFD-induced obesity in vivo.
# The mice were maintained on one of the 4 food regiment schedules as defined in Example 2. The amount of food consumed by an animal was monitored weekly.
# THP-1 macrophages = experiment: Bio-Plex Pro human 17-plex cytokine/chemokine panel in THP-1 macrophages exposed to CDDO-EA and LPS; assay type: cell-based
# Description: THP-1 monocytes were plated in 24-well plate at 15×10^4 cells/0.5 ml/well in growth medium plus 100 ng/ml PMA into each well and cultured at 37° C. with 5% CO2 incubator for 48 h for differentiation to macrophages. […] Supernatants were collected and stored at −80° C. until analysis. Cytokines and chemokines were measured and quantified using a Bio-Plex Pro human cytokines group I, 17-plex ELISA Kit (Bio-Rad) according to the manufacturer's instructions.
# GLUT4 = experiment: GLUT4myc translocation by immunofluorescence in L6-GLUT4myc myotubes; assay type: cell-based, rat
# Description: Immunofluorescence and confocal microscopy were employed to visualize the localization of c-myc epitope-tagged GLUT4 in L6-GLUT4myc myotubes treated with CDDO-EA for 1 h. L6-GLUT4myc myotubes were also treated with insulin alone for 15 min as a positive control.
# To examine the properties of CDDO-EA in regulating glucose metabolism in the skeletal muscle, the present study examined whether CDDO-EA induces translocation of GLUT4 to the cell surface (FIG. 16A). Immunofluorescence and confocal microscopy were used to visualize the localization of c-myc epitope-tagged GLUT4 in L6-GLUT4myc cells.
# Immunofluorescence microscopy: L6-GLUT4myc myoblasts (4×10^4 cells/ml, 0.2 ml/well) were plated onto Nunc Lab-TekII 8-chamber slides (Thermo Fisher Scientific) and differentiated for 7 days. Myotubes were pre-treated with CDDO-EA 500 nM for 1 h followed by LPS 100 ng/ml (E. coli O111: B4, Sigma Aldrich) treatment for 1 h. After treatment, myotubes were fixed, permeabilized, and stained with anti-NF-κB p65 primary antibody (cat #sc-372, 1:100, Santa Cruz Biotechnology) and a goat anti-rabbit secondary antibody conjugated with Alexa Fluor® 488 (cat #A32731, 1:500, Invitrogen) as previously described. For GLUT4myc cell membrane staining, myotubes were pre-treated with CDDO-EA 500 nM for 1 h followed by LPS 100 ng/ml (E. coli 0111: B4, Sigma Aldrich) treatment for 1 h. Insulin 100 nM (cat #19278, Sigma Aldrich) treatment was for 15 min. After CDDO-EA, LPS, and insulin treatment, myotubes were fixed without permeabilization and stained with anti-c-myc primary antibody (cat #C3956, 1:100, Sigma Aldrich) and a goat anti-rabbit secondary antibody conjugated with Alexa Fluor® 488 (cat #A32731, 1:500, Invitrogen) as previously described.
# [2] = OGTT and fasting glucose at week 6 with pair-fed group; assay type: in vivo, C57BL/6J mice
# Description: FIG. 25—OGTT Area Under the Curve. Oral GTT performed at week 6 of experimental feeding, and mice were dosed on lean mass (2 g/kg lean mass). C57BL/6J mice were fed a HFD with or without incorporation of CDDO-EA (diet containing 0.04% CDDO-EA) or LFD or HFD pair-fed for 6 weeks (n=5). Data are represented as mean±SEM (One-way ANOVA).
# Fasting glucose levels were measured at day 42 of experimental feeding. C57BL/6J mice were fed a HFD with or without incorporation of CDDO-EA (diet containing 0.04% CDDO-EA) or a LFD or were HFD pair-fed for 6 weeks (n=5). Data are represented as mean±SEM (One-way ANOVA).
# To determine the answer to this question, a pair-fed/weight-matched group was included in the study. OGTT was performed at end of the 6-week study.
# [3] = 500 nM CDDO-EA for 1 hr then 100 ng/ml LPS for 6 hr
smiles,measurement,setting,value
"CCNC(=O)[C@]12CCC(C)(C)C[C@H]1C1C(=O)C=C3[C@@]4(C)C=C(C#N)C(=O)C(C)(C)[C@@H]4CC[C@@]3(C)[C@]1(C)CC2 (stereo partly drawn) [CDDO-EA, (4aS,6aR,6bS,8aR,12aS,14bS)-11-cyano-N-ethyl-2,2,6a,6b,9,9,12a-heptamethyl-10,14-dioxo-1,3,4,5,6,6a,6b, 7,8,8a,9,10,12a, 14,14a, 14b-hexadecahydropicene-4a (2H)-carboxamide]",Grams of Chow per Week Consumed by Animals,"[1]; HFD + CDDO-EA (0.04%), week 1",18.0 ± 0.9 Grams of Chow per Week
same,Grams of Chow per Week Consumed by Animals,"[1]; HFD + CDDO-EA (0.04%), week 2",18.4 ± 1.0 Grams of Chow per Week
same,Grams of Chow per Week Consumed by Animals,"[1]; HFD + CDDO-EA (0.04%), week 3",16.8 ± 0.5 Grams of Chow per Week
same,Grams of Chow per Week Consumed by Animals,"[1]; HFD + CDDO-EA (0.04%), week 4",15.8 ± 0.4* * Grams of Chow per Week
same,Grams of Chow per Week Consumed by Animals,"[1]; HFD + CDDO-EA (0.04%), week 5",16.2 ± 0.5 Grams of Chow per Week
same,Grams of Chow per Week Consumed by Animals,"[1]; HFD + CDDO-EA (0.04%), week 6",16.6 ± 0.4 Grams of Chow per Week
same,energy intake (caloric food consumption),[1]; HFD chow mixed with CDDO-EA,decreased energy intake; also recorded: inhibits energy intake
same,average weekly chow consumption,"[1]; HFD+CDDO-EA group, all six weeks",17 g
same,Grams of Chow per Week Consumed by Animals,"[1]; LFD + CDDO-EA (0.04%), week 1",19.2 ± 0.6 Grams of Chow per Week
same,Grams of Chow per Week Consumed by Animals,"[1]; LFD + CDDO-EA (0.04%), week 2",21.5 ± 0.6 Grams of Chow per Week
same,Grams of Chow per Week Consumed by Animals,"[1]; LFD + CDDO-EA (0.04%), week 3",21.1 ± 0.7 Grams of Chow per Week
same,Grams of Chow per Week Consumed by Animals,"[1]; LFD + CDDO-EA (0.04%), week 4",20.0 ± 0.2 Grams of Chow per Week
same,Grams of Chow per Week Consumed by Animals,"[1]; LFD + CDDO-EA (0.04%), week 5",21.3 ± 0.3 Grams of Chow per Week
same,Grams of Chow per Week Consumed by Animals,"[1]; LFD + CDDO-EA (0.04%), week 6",19.8 ± 0.4 Grams of Chow per Week
same,more food consumed by HFD-fed animals than by HFD plus CDDO-EA-fed animals,[1]; week 3,20%
same,more food consumed by HFD-alone animals than by HFD + CDDO-EA animals,[1]; week one,at least 10%
same,"LPS-induced IL-1β, IL-6 and MCP-1 production",THP-1 macrophages; 500 nM CDDO-EA 1 hour then 100 ng/ml LPS 6 hours,"primarily inhibited LPS-induced IL-1B, IL-6 and MCP-1 production; also recorded: blocks LPS induced IL-1β, IL-6, and MCP-1 secretion"
same,IFN-γ,"THP-1 macrophages; 500 nM CDDO-EA alone, no LPS",24.78 ± 20.55 pg/mL
same,IL-1β,"THP-1 macrophages; 500 nM CDDO-EA alone, no LPS",2.19 ± 1.49 pg/mL
same,IL-4,"THP-1 macrophages; 500 nM CDDO-EA alone, no LPS",0.21 ± 0.12 pg/mL
same,IL-6,"THP-1 macrophages; 500 nM CDDO-EA alone, no LPS",0.12 ± 0.02 pg/mL
same,IL-8,"THP-1 macrophages; 500 nM CDDO-EA alone, no LPS",6339.67 ± 1535.18 pg/mL
same,IL-17,"THP-1 macrophages; 500 nM CDDO-EA alone, no LPS",22.72 ± 9.47 pg/mL
same,MCP-1,"THP-1 macrophages; 500 nM CDDO-EA alone, no LPS",2.11 ± 1.35 pg/mL
same,MIP-1β,"THP-1 macrophages; 500 nM CDDO-EA alone, no LPS",3763.83 ± 1229.25 pg/mL
same,TNF-α,"THP-1 macrophages; 500 nM CDDO-EA alone, no LPS",128.33 ± 38.63 pg/mL
same,G-CSF,THP-1 macrophages; [3],10.72 ± 4.71 pg/mL
same,IFN-γ,THP-1 macrophages; [3],114.38 ± 5.43 pg/mL
same,IL-1β,THP-1 macrophages; [3],64.65 ± 17.12 pg/mL
same,IL-2,THP-1 macrophages; [3],4.09 ± 1.51 pg/mL
same,IL-4,THP-1 macrophages; [3],1.55 ± 0.18 pg/mL
same,IL-6,THP-1 macrophages; [3],12.67 ± 5.50 pg/mL
same,IL-8,THP-1 macrophages; [3],9691.33 ± 1268.42 pg/mL
same,IL-12,THP-1 macrophages; [3],2.00 ± 1.00 pg/mL
same,IL-17,THP-1 macrophages; [3],40.16 ± 8.13 pg/mL
same,MCP-1,THP-1 macrophages; [3],11.05 ± 1.65 pg/mL
same,MIP-1β,THP-1 macrophages; [3],11212.50 ± 877.01 pg/mL
same,TNF-α,THP-1 macrophages; [3],8237.33 ± 1137.80 pg/mL
same,CDDO-EA-stimulated GLUT4myc translocation in presence of LPS,GLUT4; 500 nM CDDO-EA 1 h then 100 ng/ml LPS 1 h,did not inhibit CDDO-EA-stimulated GLUT4myc translocation; also recorded: did not prevent CDDO-EA-stimulated GLUT4myc translocation to the cell surface
same,GLUT4myc translocation to the cell surface,"GLUT4; CDDO-EA 500 nM 1 h, insulin 100 nM 15 min",induced GLUT4myc translocation to the cell surface; also recorded: activates GLUT4 translocation to cell membrane and p38 phosphorylation
same,fasting glucose,"[2]; day 42, HFD+CDDO-EA compared to HFD ad lib",significant lowered fasting glucose levels; also recorded: lowers fasting glucose levels
same,fasting glucose,"[2]; day 42, HFD+CDDO-EA compared to HFD pair-fed",close to significant effect on fasting glucose
same,glucose tolerance (OGTT Area Under the Curve),"[2]; week 6, HFD+CDDO-EA compared to HFD ad lib",significant improvement in glucose tolerance
same,glucose tolerance (OGTT Area Under the Curve),"[2]; week 6, HFD+CDDO-EA compared to HFD pair-fed",slight improvement in glucose tolerance
